{"source": "paper PMC4519317", "about": "“MsmK, an ATPase, Contributes to Utilization of Multiple Carbohydrates and Host Colonization of Streptococcus suis” (PLoS ONE, 2015)", "biological_target": "MsmK (Streptococcus suis, UniProt A0A0H3N1P0)", "sequence (A0A0H3N1P0 entry or part of it)": "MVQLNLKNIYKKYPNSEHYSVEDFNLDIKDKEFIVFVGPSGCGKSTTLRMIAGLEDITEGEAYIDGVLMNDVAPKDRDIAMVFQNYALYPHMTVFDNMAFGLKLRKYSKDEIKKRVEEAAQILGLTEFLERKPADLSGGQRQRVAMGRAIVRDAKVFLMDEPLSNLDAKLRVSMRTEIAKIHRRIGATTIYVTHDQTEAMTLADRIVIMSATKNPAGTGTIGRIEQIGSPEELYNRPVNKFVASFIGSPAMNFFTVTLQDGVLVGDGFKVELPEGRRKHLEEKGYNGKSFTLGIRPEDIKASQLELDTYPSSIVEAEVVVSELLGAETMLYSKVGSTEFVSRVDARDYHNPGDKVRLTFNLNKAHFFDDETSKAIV", "details": "1 mM ATP, 10 mM MgCl2, 200 mM KCl, 50 mM PIPES/NaOH pH 6.8, 1 mM β-mercaptoethanol, 30°C, 1 h; labelled compound"}
{"smiles": "Nc1ncnc2c1ncn2[C@@H]1O[C@H](COP(=O)(O)OP(=O)(O)OP(=O)(O)O)[C@@H](O)[C@H]1O", "note": "[ATP]", "values": [{"measurement": "radiometric TLC of ADP formed from [α-32P]-ATP", "value": "ATPase assays showed that the recombinant protein could hydrolyze ATP to ADP"}]}
